Tests used:
[1] = test system: EAE mouse model of Multiple Sclerosis; assay: EAE MS model (clinical score, body weight); assay type: in vivo; details: for progression of paralysis monitored as Clinical Score: administered 7-days after induction of MOG35-55 myelin peptide; for weight loss / body weight changes: versus Placebo mice
Excerpt: FIG. 1 is a chart illustrating the comparative effect of two compounds of the invention at lowering or blocking progression of paralysis as monitored as a Clinical Score (EAE MS model comparing parent (2,4-DNP) to prodrug (II-38) at equivalent exposures of 5 mpk parent to […] prodrug for efficacy). Legend: diamond—placebo; square—2,4-DNP 5 mpk; triangle—II-38 8 mpk; x—II-38 16 mpk; asterisk—II-38 80 mpk. P values by Ordinal Regression: 2,4-DNP 5 mpk=0.0192; II-38 8 mpk=0.000954; II-38 16 mpk=0.000124; II-38 80 mpk=0.00014 (results from logistic regression model using ordinal package from cran project, www.cran.r-project.org).
Legend: diamond—placebo; square—2,4-DNP 5 mpk; triangle—II-38 8 mpk; x—II-38 16 mpk; asterisk—II-38 80 mpk. All doses significant to preserving body weight. P values by Ordinal Regression: 2,4-DNP 5 mpk=0.0188; II-38 8 mpk<0.0001; II-38 16 mpk=0.044; II-38 80 mpk<0.0001.
In one embodiment, the compositions and methods of the invention relate to a pharmacological intervention that abolishes overt ROS production and improves the quality of the mitochondrial population by mitophagy, induces Brain Derived Neurotrophin Factor (BDNF), increases cAMP, and/or remodels cellular expression. In one embodiment, a drug of the invention thus becomes “disease modifying.” In one embodiment, a prodrug of DNP (II-38) was administered to a mouse model of Multiple Sclerosis, called the EAE, 7-days after induction of the MOG35-55 myelin peptide. The ProDrug of DNP, II-38, was administered at multiples of exposure to 2,4-DNP or DNP. […] Even though DNP historically was used in the 1930's for weight loss at high doses, here it is shown that it can paradoxically be repositioned to prevent wasting associated with neurodegenerative/autoimmune diseases at low doses.

[2] = test system: noise induced hearing loss; assay: In vivo noise exposure, Compound Action Potential threshold; design: species or system Rats; details: for CAP threshold (compound + Noise): noise 8 h, 105 dB, 8-16 kHz, 5 days oral gavage q.d., 2,4-DNP 5 mpk, II-38 80 mpk, 1-week post exposure; for threshold lower than Noise alone group: same study, Noise alone 25 dB
Procedure: In vivo Noise Exposure Pilot DNP (2,4-DNP) & Prodrug of DNP (II-38): Rats, N=6/group: control, noise alone, noise+2,4-DNP (5 mpk), noise+II-38 (80 mpk). Noise exposure: 8 h, 105 dB, noise band 8-16 kHz. Treatment duration 5 days oral gavage q.d. starting day of noise. Endpoint: Compound Action Potential (CAP) recorded from the round window membrane 1-week post exposure. Threshold: intensity in dB SPL needed to produce 4 μV CAP amplitude.

O=C(Oc1ccc([N+](=O)[O-])cc1[N+](=O)[O-])N1CCOCC1 [II-38, 2,4-Dinitrophenyl morpholine-4-carboxylate]
progression of paralysis monitored as Clinical Score [1]: striking effect at lowering or blocking progression of paralysis | weight loss / body weight changes [1]: preventing weight loss seen in the Placebo mice | CAP threshold (compound + Noise) [2]: 5 dB | threshold lower than Noise alone group [2]: approximately 20 dB

O=[N+]([O-])c1ccc(O)c([N+](=O)[O-])c1 [2,4-DNP, 2,4-dinitrophenol]
progression of paralysis monitored as Clinical Score [1]: striking effect at lowering or blocking progression of paralysis | weight loss / body weight changes [1]: preventing weight loss seen in the Placebo mice | CAP threshold (compound + Noise) [2]: 15 dB | threshold lower than Noise alone group [2]: about 10 dB

From US11406642B2, “DNP and DNP prodrug treatment of neuromuscular, neurodegenerative, autoimmune, developmental, traumatic brain injury, concussion, dry eye disease, hearing loss and/or metabolic diseases” (priority 2016, dated 2022)
